In publication PMC11497106, “GJB2 Promotes HCC Progression by Activating Glycolysis Through Cytoplasmic Translocation and Generating a Suppressive Tumor Microenvironment Based on Single Cell RNA Sequencing” (Advanced Science, 2024):

Target: T1, GJB2 (Gap junction protein beta-2; Connexin 26, Cx26); GFP-GJB2 (Homo sapiens, UniProt P29033)
T1 construct: 7QEQ is printed as human GJB2 for docking only
Test: microscale thermophoresis (Monolith NT.[…]), GFP-GJB2 in HEK293T lysate
Format: binding

Kd: 8.52 µM
Compound: O=C(/C=C/c1ccc(O)c2c1[C@H](C(=O)O[C@H](Cc1ccc(O)c(O)c1)C(=O)O)[C@@H](c1ccc(O)c(O)c1)O2)O[C@H](Cc1ccc(O)c(O)c1)C(=O)O [Salvianolic acid B]
